Molecular target: Mushroom tyrosinase (Agaricus bisporus, UniProt O42713+Q00024+C7FF04+C7FF05)
Description: Inhibition of mushroom tyrosinase using L-DOPA as substrate preincubated for 5 mins followed by substrate addition measured for 10 mins by spectrophotometric method

SMILES	IC50 [mM]
COc1cc(CO[C@@H]2O[C@H](CO[C@@H]3O[C@@H](C)[C@H](O)[C@@H](O)[C@H]3O)[C@@H](O)[C@H](O)[C@H]2O)cc(OC)c1OC	> 5
Oc1cc(O)c2c(c1)O[C@H](c1cc(O)c(O)c(O)c1)[C@H](O)C2 [EPIGALLOCATECHIN]	0.7
Oc1cc(O)c2c(c1)O[C@H](c1cc(O)c(O)c(O)c1)[C@@H](O)C2 [GALLOCATECHIN]	0.16
O=C(/C=C/c1ccc(O)cc1)NCCc1ccc(O)c(O)c1	4.3
COc1cc(/C=C/C(=O)NCCc2ccc(O)cc2)ccc1O [N-TRANS-FERULOYL TYRAMINE]	> 5
O=C(/C=C/c1ccc(O)cc1)NCCc1ccc(O)cc1 [N-P-COUMAROYL TYRAMINE]	> 5
COc1cc(/C=C/C(=O)NCCc2ccc(O)c(O)c2)ccc1O [N-TRANS-FERULOYLDOPAMINE]	> 5
Cc1c(C)c2c(c(C)c1O)CCC(C)(C(=O)O)O2 (configuration not stated) [TROLOX]	0.7
Oc1cc(O)c2c(c1)O[C@H](c1ccc(O)c(O)c1)[C@H](O)C2 [(-)-EPICATECHIN]	> 5
COc1cc(CO[C@@H]2O[C@H](CO)[C@@H](O)[C@H](O)[C@H]2O)cc(OC)c1OC	> 5

Further lines, results first:

IC50 [mM]	SMILES
> 5	COc1cc(O)c2c(=O)c(O)c(-c3cc(O)c(O)c(O)c3)oc2c1O
2.2	COc1cc(O)c2c(=O)c(O[C@@H]3O[C@@H](C)[C@H](O)[C@@H](O)[C@H]3O)c(-c3ccc(O)c(O)c3)oc2c1O
> 5	COc1cc(O)c2c(=O)c(O)c(-c3ccc(O)c(O)c3)oc2c1O
4	COc1cc(O)c2c(=O)c(O[C@@H]3O[C@@H](C)[C@H](O)[C@@H](O)[C@H]3O)c(-c3ccc(O)c(O)c3)oc2c1O[C@@H]1O[C@H](CO)[C@@H](O)[C@H](O)[C@H]1O
4.7	COc1cc(O)c2c(=O)c(O[C@@H]3O[C@@H](C)[C@H](O)[C@@H](O)[C@H]3O)c(-c3cc(O)c(O)c(O)c3)oc2c1OC(C)=O
> 5	COc1cc(O)c2c(=O)c(O[C@@H]3O[C@@H](C)[C@H](O)[C@@H](O)[C@H]3O)c(-c3ccc(O)c(O)c3)oc2c1OC(C)=O
2	C[C@@H]1O[C@@H](Oc2c(-c3cc(O)c(O)c(O)c3)oc3cc(O)cc(O)c3c2=O)[C@H](O)[C@H](O)[C@H]1O
> 5	COc1cc(O)c2c(=O)c(O)c(-c3cc(O)c(O)c(O)c3)oc2c1OC(C)=O
0.9	COc1cc(O)c2c(=O)c(O[C@@H]3O[C@@H](C)[C@H](O)[C@@H](O)[C@H]3O)c(-c3cc(O)c(O)c(O)c3)oc2c1O[C@@H]1O[C@H](CO)[C@@H](O)[C@H](O)[C@H]1O
1.2	COc1cc(O)c2c(=O)c(O[C@@H]3O[C@@H](C)[C@H](O)[C@@H](O)[C@H]3O)c(-c3cc(O)c(O)c(O)c3)oc2c1O
1.1	COc1cc(O)c2c(=O)c(O[C@@H]3O[C@@H](C)[C@H](O)[C@@H](O)[C@H]3O)c(-c3cc(O)c(O)c(O)c3)oc2c1
> 5	COc1cc(O)c2c(=O)c(O)c(-c3ccc(O)c(O)c3)oc2c1OC(C)=O

Reference: ChEMBL document CHEMBL3994603, “Antioxidant Flavonols and Phenolic Compounds from Atraphaxis frutescens and Their Inhibitory Activities against Insect Phenoloxidase and Mushroom Tyrosinase” (J Nat Prod, 2016)
